Source: patent publication US9744164B2, “Neuroprotective polyphenol analogs” (Salk Institute for Biological Studies, priority 2011, dated 2017)

Columns and labels:
HT22 cells = experiment: in vitro ischemia assay (HT22 cell IAA assay); format: cell-based, mouse; settings: for increase in survival: 20 μM IAA, over the neuroprotective concentration range; for improvement of neuroprotective activity/potency over Fisetin: relative to Fisetin, in vitro ischemia
Method: For these studies, cultured HT22 mouse hippocampal cells were used as an in vitro stroke assay. HT22 cells were treated with iodoacetic acid (IAA), an irreversible inhibitor of glyceraldehyde 3-phosphate dehydrogenase (G3PDH) for 2 hr alone or in the presence of varying concentrations of Fisetin. G3PDH is an enzyme of the glycolysis pathway, which catalyzes the synthesis of 1,3-bisphosphoglycerate, a “high energy” intermediate used for the synthesis of ATP. Cell survival was measured using a standard colorimetric MTT (3-(4,5-dimethylthiazol-2-yl)-2,5-diphenyltetrazolium bromide) assay for cell survival MTT is a pale yellow substrate that is cleaved by living cells to yield a dark blue formazan product.
Cytotoxicity assay. Cell viability was determined by a modified version of 3-(4,5-dimethylthiazol-2-yl)-2,5-diphenyl tetrazolium bromide (MTT) assay based on the standard procedure (Maher, et al., Brain Research. (2007), supra). Cells were seeded onto 96-well microtiter plates at a density of 5×10^3 cells per well. For the in vitro ischemia assay, the next day, the medium was replaced with DMEM supplemented with 7.5% DFCS and the cells were treated with 20 μM iodoacetic acid (IAA) alone or in the presence of the different derivatives. After 2 hr the medium in each well was aspirated and replaced with fresh medium without IAA but containing the derivatives. 20 hr later, the medium in each well was aspirated and replaced with fresh medium containing 2.5 μg/ml MTT. After 4 hr of incubation at 37° C., the cells were solubilized with 100 μl of a solution containing 50% dimethylformamide and 20% SDS (pH 4.7). The absorbance at 570 nm was measured on the following day with a microplate reader (Molecular Devices). Results were confirmed by visual inspection of the wells. Controls included compound alone to test for toxicity and compound with no cells to test for interference with the assay chemistry.
For a primary screen, an in vitro ischemia model in combination with the HT22 nerve cell line (Maher, et al., Brain Research. (2007) 1173, 117-125) was chosen. […] To induce ischemia in the HT22 cells we used iodoacetic acid (IAA), a well-known, irreversible inhibitor of the glycolytic enzyme glyceraldehyde 3-phosphate dehydrogenase (G3PDH) (Winkler, et al., Exp. Eye Res. (2003) 76, 715-723). IAA has been used in a number of other studies to induce ischemia in nerve cells (Reshef, et al., Neurosci. Lett. (1997) 238, 37-40; Sperling, et al., Neursci. Lett. (2003) 351, 137-140; Rego, et al., Neurochem. Res. (1999) 24, 351-358; Sigalov, et al,. J. Mol. Neurosci. (2000) 15, 147-154; and Reiner, et al., Neurosci. Lett. (1990) 119, 175-178), including several recent screens for neuroprotective molecules (Biraboneye, et al., J. Med. Chem. (2009) 52 (14), 4358-4369; Biraboneye, et al., Chem. Med. Chem. (2010) 5 (1), 79-85). The changes following IAA treatment of neural cells are very similar to those seen in animal models of ischemic stroke (Lipton, et al., Physiol. Rev. (1999) 79, 1431-1568) and include alterations in membrane potential (Reiner, et al., Neurosci. Lett. (1990) 119, 175-178), breakdown of phospholipids (Taylor, et al., J. Pharmacol. Exp. Ther. (1996) 276, 1224-1231), loss of ATP (Winkler, et al., Exp. Eye Res. (2003) 76, 715-723; Sperling, et al., Neursci. Lett. (2003) 351, 137-140) and an increase in reactive oxygen species (ROS) (Taylor, et al., J. Pharmacol. Exp. Ther. (1996), supra; and Sperling, et al., Neursci. Lett. (2003) 351, 137-140).
The roles of the four different hydroxyl groups in the activity of Fisetin were studied. […] Cell viability was determined after 24 hr by the MTT assay. The ability to maintain GSH (GSH) was determined by treating HT22 cells with different doses of each derivative (1-10 μM) in the presence of 5 mM glutamate. After 24 hr cell extracts were prepared and analyzed for total GSH. Fisetin (10 μM) was used as a positive control. […]

Nrf2 = Nrf2 induction, SDS-PAGE and Western blotting of nuclear extracts; format: cell-based; settings: cells treated 1, 2 and 4 hr at most protective concentration
Method: SDS-PAGE and immunoblotting. For immunoblotting of Nrf2, nuclear extracts were prepared as described (Schreiber, et al., Nucleic Acids Res. (1989) 17 (15), 6419) from untreated cells and cells treated with the Fisetin derivatives for 1, 2 and 4 hr. Fisetin was used as a positive control. […] Protein concentrations were determined using the BCA protein assay (Pierce). Equal amounts of protein were solubilized in 2.5× SDS-sample buffer, separated on 10% SDS-polyacrylamide gels and transferred to nitrocellulose. Equal loading and transfer of the samples was confirmed by staining the nitrocellulose with Ponceau-S. Transfers were blocked for 1 hr at room temperature with 5% nonfat milk in TBS/0.1% Tween 20 and then incubated overnight at 4° C. in the primary antibody diluted in 5% BSA in TBS/0.05% Tween 20. The primary antibodies used were: anti-Nrf2 (#SC13032; 1/1000) from Santa Cruz Biotechnology (Santa Cruz, Calif.) and anti-β-actin (#5125; 1/20,000) from Cell Signaling (Beverly, Mass.). The transfers were rinsed with TB S/0.05% Tween 20 and incubated for 1 hr at room temperature in horseradish peroxidase-goat anti-rabbit or goat anti-mouse (Biorad, Hercules, Calif.) diluted 1/5000 in 5% nonfat milk in TBS/0.1% Tween 20. The immunoblots were developed with the Super Signal reagent (Pierce, Rockford, Ill.).
The transcription factor Nrf2 plays a key role in regulating GSH metabolism in many different cell types (Lewerenz, et al., Antioxidant & Redox Signaling. (2011) 14, 1449-1465). We have shown that Fisetin can induce Nrf2 and this correlates with its ability to enhance GSH levels (Maher, P. et al., Genes. Nutr. (2009) Sep. 10). To determine if the derivatives which can maintain GSH levels do so by increasing Nrf2 we looked at Nrf2 levels in the nuclei of derivative-treated cells using Fisetin as a positive control (Table 4). […] This was particularly true for the derivatives based on the quinoline scaffold where none of them increased Nrf2 despite being very effective at maintaining GSH levels.
The ability of the derivatives that maintain GSH levels to induce the transcription factor Nrf2 was assayed by SDS-PAGE and Western blotting of nuclear extracts of untreated and derivative-treated cells. Fisetin treatment was used as a positive control.

**Q.** For `O=c1cc(-c2ccccc2)oc2cc(O)c(O)c(O)c12` [Baicalein, 5,6,7-trihydroxyflavone], which increase in survival (HT22 cells; HT22 cells) is on record?
**A.** greater than 80%

**Q.** `O=c1c(O)c(-c2ccc(O)c(O)c2)oc2ccccc12` [CMS-04P, reference compound] was tested. Which “Nrf2 (induction of transcription factor Nrf2)” value (from here on “Nrf2”) (Nrf2) did it give?
**A.** Yes

**Q.** What about the “improvement of neuroprotective activity/potency over Fisetin” value (HT22 cells) of the same compound?
**A.** ~6 fold

**Q.** Which results are given for `COc1cc(-c2ccc(O)c(O)c2)nc2ccccc12` [CMS-007, 4-methoxy-2-(3,4-dihydroxyphenyl)quinoline]?
**A.** Nrf2 (induction of transcription factor Nrf2) (Nrf2): No; improvement of neuroprotective activity/potency over Fisetin (HT22 cells): ~75 fold

**Q.** `CCOc1cc(-c2ccc(O)c(O)c2)nc2ccccc12` [CMS-023, 4-ethoxy-2-(3,4-dihydroxyphenyl)quinoline] was tested. Which “Nrf2” value (Nrf2) did it give?
**A.** No

**Q.** And the “improvement of neuroprotective activity relative to CMS-007” value (HT22 cells)?
**A.** ~2 fold

**Q.** What about the “improvement of neuroprotective activity/potency over Fisetin” value (HT22 cells) of the same compound?
**A.** ~140 fold

**Q.** `CC(C)Oc1cc(-c2ccc(O)c(O)c2)nc2ccccc12` [CMS-024, 4-isopropoxy-2-(3,4-dihydroxyphenyl)quinoline] was tested. Which “Nrf2” value (Nrf2) did it give?
**A.** No

**Q.** And the “improvement of neuroprotective activity relative to CMS-007” value (HT22 cells)?
**A.** ~2 fold

**Q.** What does the source list for `COc1ccc(/C=C/C(=O)c2cc(C)c(C)cc2O)cc1OCc1ccccc1` [CMS-086, (E)-3-(3-(benzyloxy)-4-methoxyphenyl)-1-(2-hydroxy-4,5-dimethylphenyl)prop-2-en-1-one]?
**A.** Nrf2 (induction of transcription factor Nrf2) (Nrf2): Yes; EC50 in vitro ischemia (HT22 cells; HT22 cells, 20 μM IAA 2 hr, viability by MTT after 24 hr, 'no' = no protection): no

**Q.** For `Oc1ccc(-c2cc(OC3CCCC3)c3ccccc3n2)cc1O` [CMS-121, 4-cyclopentyloxy-2-(3,4-dihydroxyphenyl)quinoline], which “Nrf2” value (Nrf2) is on record?
**A.** No

**Q.** What about the “improvement of neuroprotective activity/potency over Fisetin” value (HT22 cells) of the same compound?
**A.** > 400 fold

**Q.** Which results are given for `O=c1c(O)c(-c2ccc(N3CCCC3)c(O)c2)oc2c1ccc1ccccc12` [CMS-140, 3-hydroxy-2-(3-hydroxy-4-(pyrrolidin-1-yl)phenyl)-4H-benzo[h]chromen-4-one]?
**A.** Nrf2 (induction of transcription factor Nrf2) (Nrf2): No; improvement of neuroprotective activity/potency over Fisetin (HT22 cells): up to 600 fold

**Q.** What does the source list for `O=c1c(O)c(-c2ccc(O)c(O)c2)oc2cc(O)ccc12` [Fisetin, 3,7,3′,4′-tetrahydroxy flavone]?
**A.** Nrf2 (induction of transcription factor Nrf2) (Nrf2): Yes; increase in survival (HT22 cells; HT22 cells): greater than 85%
